# pKi: −log10 of the molar value.
# How the values were obtained:
# [1] = In vivo inhibitor kinetics (GM 6001 concentration in CSF); parameters: species or system mice; settings: for concentration at 3 h: for at least 3 h
# Description: In vivo inhibitor kinetics. Normal noninduced animals or animals with clinical signs of EAE for 2 d were given a single intraperitoneal injection of 4 mg GM 6001 and euthanized by CO2 inhalation after various time intervals. CSF was taken by suboccipital puncture. Pooled CSF from five animals per time point was frozen immediately at -70° C. GM 6001 concentrations were determined by reversed-phase HPLC by Bay Bioanalytical Laboratories, Richmond, Calif. was diluted into 20% acetonitrile in water and chromatographed on a C-18 reversed-phase column with fluorescence detection. Linearity was determined by spiking blank CSF with increasing amounts of GM 6001. The amount of GM 6001 in CSF samples was calculated based on recovery of GM 6001 and the internal standard in spiked samples. The lower limit for quantification of GM 6001 in the CSF samples was 60 ng/rnl.
# EAE in SJL/J mice [2] = experiment: Blood-brain barrier permeability (Evans blue); assay type: in vivo
# Description: Mice were injected intravenously with 1% (wt/vol) Evans blue (Fisher Scientific Co., Fair Lawn, N.J.) in PBS at a dosage of 4 μl/g body weight. After 1 h the animals were euthanized by CO2 inhalation and perfused with PBS via the left ventricle. Brain and spinal cord were dissected and cut longitudinally. Half of the CNS was used for histopathological evaluation. The other half was weighed and tissue samples were then extracted for 3 d in formamide (5 μl/mg tissue) and the extracts centrifuged for 5 min at 500 g. Evans blue concentration in the extracts was determined by measuring the absorbance at 650 nm. The blood-brain barrier permeability index was calculated by dividing the value for each sample by the corresponding (brain or spinal cord) mean value of four normal noninduced animals.
# EAE in SJL/J mice [3] = experiment: Histopathology of brain and spinal cord (inflammation, demyelination); assay type: in vivo; settings: for Demyelination Brain + SC / Inflammation Brain / Inflammation Spinal Cord: 1 × 1.33 mg/d i.p.; for Demyelination Brain + SC: demyelination score; for Inflammation Brain / Inflammation Spinal Cord: total inflammatory score
# Description: Sections were stained with hematoxylin and eosin, Kluver-Barrera and Giemsa stain. Histopathology was assessed as follows. Individual inflammatory lesions were scored as 1=perivascular inflammatory cuff≤three cells thick, 2=>three cells thick. 3=parenchymal infiltrate. The total inflammatory score was then calculated by adding all the scores for individual lesions from all the sections for a given sample. The demyelination score was calculated the same way as inflammatory score, with 1=demyelinated rim around infiltrate, 2=demyelination extending into noninfiltrated tissue.
# gelatinase B = settings: cited from earlier work
# [4] = test system: gelatinase A and B in the CSF from animals with EAE; experiment: In vitro inhibition of gelatinase activity in CSF (SDS/PAGE zymography); assay type: biochemical, mice
# Description: In vitro inhibition of gelatinase activity. Gelatinase activity in a pooled CSF sample from animals with clinical signs of EAE (grade 2-3 for 4-5 d) was determined by SDS/PAGE zymography. CSF was applied without prior denaturation to a single-well 7.5% (wt/vol) polyacrylamide gel containing 0.1% (wt/vol) SDS to which 0.1% (wt/vol) tissue culture grade gelatin (Sigma Chemical Co., St. Louis, Mo.) was added and copolymerized. […] The gel (7 cm×10 cm×0.75 mm) was run for approximately 2 h at 20 mA. After electrophoresis the gel was washed (washing buffer: 50 mM Tris-HCL, 10 mM CaCl2, 0.02% (wt/vol) NaN3, 2.5% (vol/vol) Triton X-100, pH 7.5) to remove the SDS and sliced into strips. The resulting strips were incubated separately at 37° C. during 24 h (same buffer as for the washing, containing only 1% [vol/vol] Triton X-100) for development of the enzyme activity, stained with Coomassie brilliant blue R-250 and destained in methanol/acetic acid. Gelatinase activity was detected as unstained bands on a blue background. To assess the effect of protease inhibitors on the gelatinase activity present in the CSF, metalloprotease inhibitors (dissolved in DMSO) were added to the incubation buffer. GM 6001 was used at final concentrations from 0.1 to 33 μM; 1,10-phenanthroline (Sigma Chemical Co.) was used as a positive control at 2.5 mM, and the noninhibitor lane was incubated in 0.5% (vol/vol) DMSO.
# EAE in SJL/J mice [5] = experiment: Clinical scoring of EAE; assay type: in vivo; parameters: key to Change in average cumulative score During treatment / Change in average cumulative score After treatment: change in cumulative EAE grade; 0 = no signs, 5 = death
# Description: EAE induction, Female SJL/J mice (Jackson Laboratory, Bar Harbor, Me.) were used at 5-7 week of age. […] PLP peptide 139-151 was prepared by continuous flow solid phase synthesis according to the sequence (SEQ ID NO 1 ) HCLGKWLGHPDKF by the Protein and Nucleic Acid Facility, Beckman Center, Stanford, Calif. Peptide purity was examined by HPLC analysis and peptide identity was confirmed by amino-acid composition analysis.
# EAE was scored clinically as follows: no neurological signs=grade 0, weak tail=grade 1, wobbly walk or limb paresis=grade 2, limb paralysis=grade 3, inability to move=grade 4, death=grade 5. Easy access to food and water was provided and animals with grade 3 or 4 received daily parenteral fluid.
# […] The same volume of vehicle was used as a control treatment. Animals were treated daily either from the day of disease induction for 20 d or from the onset of clinical signs for 10 d (randomized for the different treatment groups).
# [6] = animals with EAE, single intraperitoneal dose of 4 mg
# [7] = 3 days of treatment from onset of clinical signs
# [8] = 10 days of treatment from onset of clinical signs
# [9] = Experiment 1, from disease induction for 20 d, 2X/d 2.00 mg i.p.
# [10] = Experiment 1, from onset of clinical signs for 10 d, 2X/d 2.00 mg i.p.
# [11] = Experiment 2, from disease induction for 20 d, 1X/d 0.13 mg i.p.
# [12] = Experiment 2, from disease induction for 20 d, 1X/d 0.40 mg i.p.
# [13] = Experiment 2, from disease induction for 20 d, 1X/d 1.33 mg i.p.
# [14] = Experiment 2, from disease induction for 20 d, 1X/d 4.00 mg i.p.
# [15] = Experiment 2, from onset of clinical signs for 10 d, 1X/d 0.13 mg i.p.
# [16] = Experiment 2, from onset of clinical signs for 10 d, 1X/d 0.40 mg i.p.
# [17] = Experiment 2, from onset of clinical signs for 10 d, 1X/d 1.33 mg i.p.
# [18] = Experiment 2, from onset of clinical signs for 10 d, 1X/d 4.00 mg i.p.
smiles,measurement,setting,value
"CNC(=O)[C@H](Cc1c[nH]c2ccccc12)NC(=O)[C@@H](CC(=O)NO)CC(C)C [GM 6001, N-[2(R)-2-(hydroxamidocarbonylmethyl)-4-methylpentanoyl]-L-tryptophan methylamide]",duration of detectable levels in the CSF,[1]; [6],at least 4 h
same,time after injection at which detectable levels in the CSF start,[1]; [6],30 min
same,concentration at 8 h,"[1]; mouse, csf, ip, animals with EAE, single i.p. dose of 4 mg, after 8 hours",100 ng/mL
same,concentration at 16 h,"[1]; mouse, csf, ip, animals with EAE, single i.p. dose of 4 mg, after 16 hours",< 60 ng/mL
same,concentration at 3 h,"[1]; mouse, csf, ip, animals with EAE, single i.p. dose of 4 mg",100 to 200 ng/mL
same,concentration at 3 h,"[1]; mouse, csf, ip, animals with EAE, single i.p. dose of 4 mg, converted from ng/ml",250 to 500 nM
same,concentration in the CSF,"[1]; normal noninduced animals, single i.p. dose of 4 mg",never rose above the detection limit
same,Blood Brain Barrier Index Spinal Cord,"EAE in SJL/J mice [2]; 3 days of treatment from onset of clinical signs, 1 × 1.33 mg/d i.p.",0.7 ± 0.12
same,Blood Brain Barrier Index Brain,"EAE in SJL/J mice [2]; 3 days of treatment from onset of clinical signs, 1 × 1.33 mg/d i.p., ratio of permeability for Evan's blue",1.1 ± 0.16
same,Blood Brain Barrier Index Spinal Cord,"EAE in SJL/J mice [2]; 10 days of treatment from onset of clinical signs, 1 × 1.33 mg/d i.p.",1.1 ± 0.11
same,blood-brain barrier index,"EAE in SJL/J mice [2]; after 10 d of disease, 1×1.33 mg/d from onset, vehicle significantly elevated, P<0.05",normal
same,Demyelination Brain + SC,EAE in SJL/J mice [3]; [7],3.7 ± 0.88
same,Inflammation Brain,EAE in SJL/J mice [3]; [7],31.7 ± 5.17
same,Inflammation Spinal Cord,EAE in SJL/J mice [3]; [7],14.7 ± 1.67
same,Demyelination Brain + SC,EAE in SJL/J mice [3]; [8],2.3 ± 0.63
same,Inflammation Brain,EAE in SJL/J mice [3]; [8],21.0 ± 3.14
same,Inflammation Spinal Cord,EAE in SJL/J mice [3]; [8],15.0 ± 3.24
same,inflammatory and demyelination scores compared with vehicle,"EAE in SJL/J mice [3]; after 3 and 10 d of treatment, 1×1.33 mg/d from onset, differences not statistically significant",lower after 3 and 10 d of treatment with GM 6001 in all but one group
same,pKi,gelatinase B,9.70
same,inhibition of gelatinase A compared with gelatinase B in CSF,[4]; CSF from animals with EAE,equally well inhibited
same,inhibition of gelatinase activity in CSF,"[4]; GM 6001 at 1 μM to 33 μM, pooled CSF from animals with EAE, zymography",completely inhibited all gelatinase activity
same,inhibition of gelatinase activity in CSF,"[4]; GM 6001 at 0.1 and 0.33 μM, pooled CSF from animals with EAE, zymography",partial inhibition
same,efficacy at low dose when given from disease induction,"EAE in SJL/J mice [5]; 0.13 mg/d once daily, P<0.05 (4 and 1.33 mg/d P<0.005)",still effective
same,efficacy of single daily dose compared with 2×2 mg/d,"EAE in SJL/J mice [5]; 4 mg/d once daily i.p., both treatment schedules",comparable efficacy
same,Change in average cumulative score After treatment,EAE in SJL/J mice [5]; [9],9.9 ± 2.17
same,Change in average cumulative score During treatment,EAE in SJL/J mice [5]; [9],7.0 ± 2.57
same,Change in average cumulative score After treatment,EAE in SJL/J mice [5]; [10],-7.2 ± 2.69
same,Change in average cumulative score During treatment,EAE in SJL/J mice [5]; [10],-6.5 ± 2.08
same,Change in average cumulative score After treatment,EAE in SJL/J mice [5]; [11],18.0 ± 9.82
same,Change in average cumulative score During treatment,EAE in SJL/J mice [5]; [11],7.7 ± 3.09
same,Change in average cumulative score After treatment,EAE in SJL/J mice [5]; [12],23.9 ± 4.96
same,Change in average cumulative score During treatment,EAE in SJL/J mice [5]; [12],11.3 ± 0.94
same,Change in average cumulative score After treatment,EAE in SJL/J mice [5]; [13],12.0 ± 3.83
same,Change in average cumulative score During treatment,EAE in SJL/J mice [5]; [13],3.4 ± 1.77
same,Change in average cumulative score After treatment,EAE in SJL/J mice [5]; [14],22.2 ± 4.61
same,Change in average cumulative score During treatment,EAE in SJL/J mice [5]; [14],2.4 ± 1.16
same,Change in average cumulative score After treatment,EAE in SJL/J mice [5]; [15],-10.6 ± 5.67
same,Change in average cumulative score During treatment,EAE in SJL/J mice [5]; [15],2.0 ± 1.92
same,Change in average cumulative score After treatment,EAE in SJL/J mice [5]; [16],-7.9 ± 4.44
same,Change in average cumulative score During treatment,EAE in SJL/J mice [5]; [16],-0.3 ± 2.03
same,Change in average cumulative score After treatment,EAE in SJL/J mice [5]; [17],-15.0 ± 5.79
same,Change in average cumulative score During treatment,EAE in SJL/J mice [5]; [17],-4.1 ± 1.81
same,Change in average cumulative score After treatment,EAE in SJL/J mice [5]; [18],-7.1 ± 7.86
same,Change in average cumulative score During treatment,EAE in SJL/J mice [5]; [18],-4.3 ± 2.69
same,clinical severity of the disease compared with the vehicle-treated group,"EAE in SJL/J mice [5]; FIG. 1, from disease induction for 20 d, 2×2 mg/d i.p., 10 animals per group",significantly reduced
same,"disease score, treatment of clinical relapse","EAE in SJL/J mice [5]; FIG. 3, 1×4 mg/d for 10 days from onset of clinical relapse, nine animals",statistically significant difference
same,recovery from the drop in body weight associated with the onset of EAE,EAE in SJL/J mice [5]; experiment 2,recovered faster
same,clinical scores after start of treatment,"EAE in SJL/J mice [5]; from onset of clinical signs for 10 d, 2×2 mg/d, P<0.005 vs vehicle up to two days after treatment",decreased the day after the start of treatment
same,animals returned to score 0 (clinically normal) within 12 d following the onset of clinical signs,"EAE in SJL/J mice [5]; from onset of clinical signs for 10 d, 2×2 mg/d, vehicle 3 out of 10",8 out of 10
same,animals that returned to score 0 and had a clinical disease relapse during the follow-up period,"EAE in SJL/J mice [5]; of the 8 recovered animals, 2×2 mg/d from onset for 10 d, vehicle all 3",7 animals
same,reduction of disease severity when treated from disease onset,"EAE in SJL/J mice [5]; once daily 4, 1.33, 0.40, 0.13 mg/d, P<0.05, FIG. 2",only 4 and 1.33 mg/d were significantly effective
"c1cnc2c(c1)ccc1cccnc12 [phenanthroline, 1,10-phenanthroline, reference compound]",inhibition of gelatinase activity in CSF,"[4]; phenanthroline 2.5 mM, positive control",served as an inhibitory control

# — patent publication US5532265A, “Treatment of central nervous system inflammatory disease with matrix metalloprotease inhibitors” (The Board of Trustees of the Leland Stanford Junior …, priority 1994, dated 1996)
